Laboratory results from publication PMC6478789, “A chemical toolbox for the study of bromodomains and epigenetic signaling” (Nature Communications, 2019).
Read-outs that look alike come from different tables or passages of the source.

Key:
EP300 = EP300 (Homo sapiens, UniProt Q09472); test: Histone acetyltransferase (HAT) activity assay; assay type: biochemical; details: for activity at 1 µM / activity at 10 µM: read-out: HATs Activity (%);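 as to all read-outs here: selectivity screen of bromodomain probe compounds against histone acetyltransferases, with enzyme activity given in percent for compounds tested at 1 and 10 µM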
GCN5L2 [1] = target: GCN5L2 (Homo sapiens, UniProt Q92830); test: Histone acetyltransferase (HAT) activity assay; assay type: biochemical; details: for activity at 1 µM / activity at 10 µM: read-out: HATs Activity (%);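 as to all read-outs here: selectivity screen of BRD probe compounds across a panel of histone acetyltransferases, HAT activity in % with compound at 1 or 10 µM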
Target sequence in this assay (Q92830 whole entry, species assumed, the tested form may be a part): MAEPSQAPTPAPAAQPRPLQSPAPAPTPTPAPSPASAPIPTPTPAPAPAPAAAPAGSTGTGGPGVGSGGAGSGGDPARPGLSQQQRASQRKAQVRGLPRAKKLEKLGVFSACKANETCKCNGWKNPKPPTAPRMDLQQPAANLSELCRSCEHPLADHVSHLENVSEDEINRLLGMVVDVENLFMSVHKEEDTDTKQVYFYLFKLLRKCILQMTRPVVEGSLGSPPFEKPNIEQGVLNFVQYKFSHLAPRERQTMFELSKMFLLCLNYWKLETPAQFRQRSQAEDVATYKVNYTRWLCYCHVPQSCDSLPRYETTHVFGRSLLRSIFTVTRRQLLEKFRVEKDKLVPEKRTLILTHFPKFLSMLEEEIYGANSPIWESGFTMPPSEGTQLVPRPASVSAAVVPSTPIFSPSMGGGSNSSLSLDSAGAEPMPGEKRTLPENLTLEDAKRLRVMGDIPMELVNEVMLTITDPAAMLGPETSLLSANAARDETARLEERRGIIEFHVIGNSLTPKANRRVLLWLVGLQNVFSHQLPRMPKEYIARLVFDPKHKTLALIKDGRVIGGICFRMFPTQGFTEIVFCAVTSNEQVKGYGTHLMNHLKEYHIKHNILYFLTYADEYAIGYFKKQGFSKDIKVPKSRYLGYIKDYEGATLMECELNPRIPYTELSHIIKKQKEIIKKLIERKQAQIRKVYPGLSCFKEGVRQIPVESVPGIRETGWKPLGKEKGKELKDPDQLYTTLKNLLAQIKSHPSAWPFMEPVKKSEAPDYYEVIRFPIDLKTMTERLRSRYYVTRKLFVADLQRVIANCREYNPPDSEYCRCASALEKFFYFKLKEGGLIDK

BRPF1 = BRPF1 (Homo sapiens, UniProt P55201); test: Temperature shift assay (non-BRD reader domains); assay type: binding; details: 10µM compound
MYST3 = MYST3 (Homo sapiens, UniProt Q92794); test: Histone acetyltransferase (HAT) activity assay; assay type: biochemical; details: for activity at 1 µM / activity at 10 µM: read-out: HATs Activity (%);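 as to all read-outs here: selectivity screen of bromodomain probe compounds across a panel of histone acetyltransferases, read out as enzyme activity in %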
HAT1 = target: T1, HAT1 (Homo sapiens, UniProt O14929); test: Histone acetyltransferase (HAT) activity assay; assay type: biochemical; details: for activity at 1 µM / activity at 10 µM: read-out: HATs Activity (%);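 as to all read-outs here: HAT selectivity screen of BRD probe compounds, enzyme activity in % measured with compound at 1 µM and 10 µM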
T1 sequence (O14929 1-419): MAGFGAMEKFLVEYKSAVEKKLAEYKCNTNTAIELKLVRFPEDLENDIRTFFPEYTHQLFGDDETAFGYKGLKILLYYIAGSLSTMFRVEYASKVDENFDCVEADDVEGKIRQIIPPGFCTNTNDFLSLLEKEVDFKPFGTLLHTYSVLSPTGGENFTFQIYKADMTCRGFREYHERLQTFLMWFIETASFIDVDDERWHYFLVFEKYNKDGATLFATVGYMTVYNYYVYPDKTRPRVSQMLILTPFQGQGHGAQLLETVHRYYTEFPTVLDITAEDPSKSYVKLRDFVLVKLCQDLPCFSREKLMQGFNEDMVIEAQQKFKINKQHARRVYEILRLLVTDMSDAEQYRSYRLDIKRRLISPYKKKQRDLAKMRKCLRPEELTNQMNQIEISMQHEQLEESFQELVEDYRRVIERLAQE

MYST1 = target: T2, MYST1 (Homo sapiens, UniProt Q9H7Z6); test: Histone acetyltransferase (HAT) activity assay; assay type: biochemical; details: for activity at 1 µM / activity at 10 µM: read-out: HATs Activity (%);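 as to all read-outs here: selectivity screen across a panel of histone acetyltransferases, with compounds tested at 1 and 10 µM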
T2 sequence (Q9H7Z6 1-458): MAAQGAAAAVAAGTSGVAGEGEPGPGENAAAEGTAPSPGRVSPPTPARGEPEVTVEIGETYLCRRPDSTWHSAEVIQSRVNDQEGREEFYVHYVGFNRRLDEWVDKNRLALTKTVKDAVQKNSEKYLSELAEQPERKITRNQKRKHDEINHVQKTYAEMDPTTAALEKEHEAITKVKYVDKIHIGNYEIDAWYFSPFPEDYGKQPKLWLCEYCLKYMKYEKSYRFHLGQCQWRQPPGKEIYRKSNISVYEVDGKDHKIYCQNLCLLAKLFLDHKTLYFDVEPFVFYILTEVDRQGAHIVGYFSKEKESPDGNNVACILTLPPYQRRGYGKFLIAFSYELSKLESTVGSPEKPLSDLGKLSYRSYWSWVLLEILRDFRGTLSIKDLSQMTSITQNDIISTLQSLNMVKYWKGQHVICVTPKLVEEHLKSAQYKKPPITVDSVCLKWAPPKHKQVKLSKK

BRD8(1) = BRD8(1) (Homo sapiens, UniProt Q9H0E9); test: BROMOscan ligand-binding assay
Source text: (§1) BROMOscan is a binding assay based on the well-known KINOMEscan technology. This assay measures the binding of a DNA-tagged bromodomain to an immobilized BRD ligand. If an inhibitor is present, it will compete with the bromodomain binding to the immobilized ligand, resulting in reduction of a quantitative PCR (qPCR) signal in a dose-dependent manner.

PBRM1(2) = PBRM1(2) (Homo sapiens, UniProt Q86U86); test: BROMOscan ligand-binding assay
Source text: as §1

BRD2(1) = BRD2(1) (Homo sapiens, UniProt P25440); test: BROMOscan ligand-binding assay; details: BRD2(1)
Source text: as §1

ATAD2A = target: T3, ATAD2A (Homo sapiens, UniProt Q6PL18); test: BROMOscan ligand-binding assay
T3 sequence (Q6PL18 980-1092 limits assumed): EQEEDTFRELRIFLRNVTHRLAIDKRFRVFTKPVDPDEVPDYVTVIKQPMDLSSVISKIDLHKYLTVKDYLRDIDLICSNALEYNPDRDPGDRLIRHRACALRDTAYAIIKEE
Source text: as §1

TRIM24(PHD,BRD) = target: T4, TRIM24(PHD,BRD) (Homo sapiens, UniProt O15164); test: BROMOscan ligand-binding assay
T4 sequence (O15164 824-1006 limits assumed): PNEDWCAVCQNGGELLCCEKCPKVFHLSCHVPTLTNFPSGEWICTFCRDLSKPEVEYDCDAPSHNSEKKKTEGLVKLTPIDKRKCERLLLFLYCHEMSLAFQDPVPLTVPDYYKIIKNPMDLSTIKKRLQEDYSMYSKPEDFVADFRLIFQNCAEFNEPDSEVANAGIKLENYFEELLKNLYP
Source text: as §1

ATAD2B = target: T5, ATAD2B (Homo sapiens, UniProt Q9ULI0); test: BROMOscan ligand-binding assay
T5 sequence (Q9ULI0 951-1066 limits assumed): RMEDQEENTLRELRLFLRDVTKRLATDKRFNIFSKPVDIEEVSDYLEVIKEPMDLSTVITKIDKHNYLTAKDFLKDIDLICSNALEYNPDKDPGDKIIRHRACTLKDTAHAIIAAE
Source text: as §1

PCAF = target: T6, PCAF (Homo sapiens, UniProt Q92831); test: BROMOscan ligand-binding assay
T6 sequence (Q92831 723-827 limits assumed): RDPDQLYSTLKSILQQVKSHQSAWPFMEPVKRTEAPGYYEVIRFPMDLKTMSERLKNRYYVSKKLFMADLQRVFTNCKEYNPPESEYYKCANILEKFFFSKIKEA
Source text: as §1

GCN5L2 [2] = target: T7, GCN5L2 (Homo sapiens, UniProt Q92830); test: BROMOscan ligand-binding assay
T7 sequence (Q92830 728-832 limits assumed): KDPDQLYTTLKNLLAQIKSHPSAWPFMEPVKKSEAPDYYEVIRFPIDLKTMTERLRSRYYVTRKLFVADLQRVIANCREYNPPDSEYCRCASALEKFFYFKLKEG
Source text: as §1

BAZ2A = target: T8, BAZ2A (Homo sapiens, UniProt Q9UIF9); test: BROMOscan ligand-binding assay
T8 sequence (Q9UIF9 1793-1897 limits assumed): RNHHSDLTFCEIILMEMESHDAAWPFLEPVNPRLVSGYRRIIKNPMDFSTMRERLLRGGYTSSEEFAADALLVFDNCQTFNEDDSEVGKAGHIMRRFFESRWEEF
Source text: as §1

SMARCA2 = SMARCA2 (Homo sapiens, UniProt P51531); test: BROMOscan ligand-binding assay
Source text: as §1

BRD3(2) = BRD3(2) (Homo sapiens, UniProt Q15059); test: BROMOscan ligand-binding assay
Source text: as §1

[3] = read-out: KD (BROMOscan), sheet prints no unit (nM)
[4] = KD (BROMOscan), sheet prints no unit (nM)

Chain of BRD3(2) (Q15059 306-415 limits assumed): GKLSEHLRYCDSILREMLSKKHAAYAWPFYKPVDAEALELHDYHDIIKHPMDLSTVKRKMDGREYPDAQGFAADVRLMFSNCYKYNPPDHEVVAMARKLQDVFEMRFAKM
Chain of MYST3 (Q92794 whole entry, species assumed): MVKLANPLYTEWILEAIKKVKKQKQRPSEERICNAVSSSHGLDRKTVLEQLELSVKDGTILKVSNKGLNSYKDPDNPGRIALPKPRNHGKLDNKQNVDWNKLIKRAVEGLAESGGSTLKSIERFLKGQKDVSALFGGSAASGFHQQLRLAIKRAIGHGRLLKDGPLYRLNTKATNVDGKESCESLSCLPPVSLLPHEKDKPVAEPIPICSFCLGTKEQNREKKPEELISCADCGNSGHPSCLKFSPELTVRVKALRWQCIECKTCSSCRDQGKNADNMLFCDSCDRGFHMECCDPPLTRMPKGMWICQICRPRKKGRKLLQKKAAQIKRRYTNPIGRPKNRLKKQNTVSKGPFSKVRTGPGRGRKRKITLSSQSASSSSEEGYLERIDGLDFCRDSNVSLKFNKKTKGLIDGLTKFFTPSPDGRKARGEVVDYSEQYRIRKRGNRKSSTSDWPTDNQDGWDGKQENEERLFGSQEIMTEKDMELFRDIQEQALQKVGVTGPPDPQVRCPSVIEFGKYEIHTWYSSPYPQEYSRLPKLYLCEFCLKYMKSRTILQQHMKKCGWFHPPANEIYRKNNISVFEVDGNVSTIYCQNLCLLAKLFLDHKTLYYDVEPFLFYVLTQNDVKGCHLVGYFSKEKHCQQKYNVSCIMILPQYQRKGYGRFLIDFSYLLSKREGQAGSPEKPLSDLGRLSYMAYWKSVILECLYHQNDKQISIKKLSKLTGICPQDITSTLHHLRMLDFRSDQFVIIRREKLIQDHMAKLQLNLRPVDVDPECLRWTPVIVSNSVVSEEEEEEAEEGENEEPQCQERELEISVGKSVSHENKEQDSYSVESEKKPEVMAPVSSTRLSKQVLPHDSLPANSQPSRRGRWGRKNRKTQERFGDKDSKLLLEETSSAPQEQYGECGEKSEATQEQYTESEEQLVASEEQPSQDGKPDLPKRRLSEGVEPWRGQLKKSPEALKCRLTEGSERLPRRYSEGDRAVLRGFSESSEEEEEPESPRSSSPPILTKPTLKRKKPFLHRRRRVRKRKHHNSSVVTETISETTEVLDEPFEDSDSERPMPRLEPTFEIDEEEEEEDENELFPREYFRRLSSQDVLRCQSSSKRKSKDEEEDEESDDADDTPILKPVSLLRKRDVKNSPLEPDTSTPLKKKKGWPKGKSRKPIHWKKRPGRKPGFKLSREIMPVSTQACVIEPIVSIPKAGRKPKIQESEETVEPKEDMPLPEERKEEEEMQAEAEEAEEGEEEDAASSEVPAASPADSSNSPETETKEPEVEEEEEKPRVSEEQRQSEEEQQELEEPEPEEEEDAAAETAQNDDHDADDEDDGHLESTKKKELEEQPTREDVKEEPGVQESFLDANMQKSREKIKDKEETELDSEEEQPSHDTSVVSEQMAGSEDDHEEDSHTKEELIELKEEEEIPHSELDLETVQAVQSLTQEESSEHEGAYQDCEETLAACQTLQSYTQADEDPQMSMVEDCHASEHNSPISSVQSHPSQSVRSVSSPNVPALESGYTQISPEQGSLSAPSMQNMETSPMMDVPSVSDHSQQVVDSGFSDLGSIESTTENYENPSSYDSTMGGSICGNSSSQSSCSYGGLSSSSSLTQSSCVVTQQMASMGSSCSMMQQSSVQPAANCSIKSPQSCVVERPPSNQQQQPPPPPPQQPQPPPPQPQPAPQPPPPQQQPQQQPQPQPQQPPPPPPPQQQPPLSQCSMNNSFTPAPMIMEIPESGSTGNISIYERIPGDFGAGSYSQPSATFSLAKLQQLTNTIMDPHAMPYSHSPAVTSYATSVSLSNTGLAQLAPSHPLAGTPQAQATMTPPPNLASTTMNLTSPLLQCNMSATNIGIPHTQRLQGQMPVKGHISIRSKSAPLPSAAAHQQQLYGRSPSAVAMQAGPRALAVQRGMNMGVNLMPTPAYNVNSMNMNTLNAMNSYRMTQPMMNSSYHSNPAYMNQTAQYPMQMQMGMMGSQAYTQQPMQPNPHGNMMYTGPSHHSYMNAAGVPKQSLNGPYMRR
Chain of BRPF1 (P55201 1085-1168 limits assumed, species assumed): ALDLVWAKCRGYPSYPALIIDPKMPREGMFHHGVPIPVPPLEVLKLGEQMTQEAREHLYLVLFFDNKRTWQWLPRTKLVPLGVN
Chain of BRD8(1) (Q9H0E9 706-811 limits assumed): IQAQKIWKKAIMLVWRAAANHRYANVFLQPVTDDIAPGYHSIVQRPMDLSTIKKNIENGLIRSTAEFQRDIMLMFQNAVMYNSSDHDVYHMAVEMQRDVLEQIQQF
Chain of PBRM1(2) (Q86U86 177-287 limits assumed): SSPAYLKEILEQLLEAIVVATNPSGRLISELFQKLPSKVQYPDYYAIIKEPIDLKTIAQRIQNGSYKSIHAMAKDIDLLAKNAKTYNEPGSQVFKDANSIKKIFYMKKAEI
Chain of SMARCA2 (P51531 1-1572 isoform P51531-2): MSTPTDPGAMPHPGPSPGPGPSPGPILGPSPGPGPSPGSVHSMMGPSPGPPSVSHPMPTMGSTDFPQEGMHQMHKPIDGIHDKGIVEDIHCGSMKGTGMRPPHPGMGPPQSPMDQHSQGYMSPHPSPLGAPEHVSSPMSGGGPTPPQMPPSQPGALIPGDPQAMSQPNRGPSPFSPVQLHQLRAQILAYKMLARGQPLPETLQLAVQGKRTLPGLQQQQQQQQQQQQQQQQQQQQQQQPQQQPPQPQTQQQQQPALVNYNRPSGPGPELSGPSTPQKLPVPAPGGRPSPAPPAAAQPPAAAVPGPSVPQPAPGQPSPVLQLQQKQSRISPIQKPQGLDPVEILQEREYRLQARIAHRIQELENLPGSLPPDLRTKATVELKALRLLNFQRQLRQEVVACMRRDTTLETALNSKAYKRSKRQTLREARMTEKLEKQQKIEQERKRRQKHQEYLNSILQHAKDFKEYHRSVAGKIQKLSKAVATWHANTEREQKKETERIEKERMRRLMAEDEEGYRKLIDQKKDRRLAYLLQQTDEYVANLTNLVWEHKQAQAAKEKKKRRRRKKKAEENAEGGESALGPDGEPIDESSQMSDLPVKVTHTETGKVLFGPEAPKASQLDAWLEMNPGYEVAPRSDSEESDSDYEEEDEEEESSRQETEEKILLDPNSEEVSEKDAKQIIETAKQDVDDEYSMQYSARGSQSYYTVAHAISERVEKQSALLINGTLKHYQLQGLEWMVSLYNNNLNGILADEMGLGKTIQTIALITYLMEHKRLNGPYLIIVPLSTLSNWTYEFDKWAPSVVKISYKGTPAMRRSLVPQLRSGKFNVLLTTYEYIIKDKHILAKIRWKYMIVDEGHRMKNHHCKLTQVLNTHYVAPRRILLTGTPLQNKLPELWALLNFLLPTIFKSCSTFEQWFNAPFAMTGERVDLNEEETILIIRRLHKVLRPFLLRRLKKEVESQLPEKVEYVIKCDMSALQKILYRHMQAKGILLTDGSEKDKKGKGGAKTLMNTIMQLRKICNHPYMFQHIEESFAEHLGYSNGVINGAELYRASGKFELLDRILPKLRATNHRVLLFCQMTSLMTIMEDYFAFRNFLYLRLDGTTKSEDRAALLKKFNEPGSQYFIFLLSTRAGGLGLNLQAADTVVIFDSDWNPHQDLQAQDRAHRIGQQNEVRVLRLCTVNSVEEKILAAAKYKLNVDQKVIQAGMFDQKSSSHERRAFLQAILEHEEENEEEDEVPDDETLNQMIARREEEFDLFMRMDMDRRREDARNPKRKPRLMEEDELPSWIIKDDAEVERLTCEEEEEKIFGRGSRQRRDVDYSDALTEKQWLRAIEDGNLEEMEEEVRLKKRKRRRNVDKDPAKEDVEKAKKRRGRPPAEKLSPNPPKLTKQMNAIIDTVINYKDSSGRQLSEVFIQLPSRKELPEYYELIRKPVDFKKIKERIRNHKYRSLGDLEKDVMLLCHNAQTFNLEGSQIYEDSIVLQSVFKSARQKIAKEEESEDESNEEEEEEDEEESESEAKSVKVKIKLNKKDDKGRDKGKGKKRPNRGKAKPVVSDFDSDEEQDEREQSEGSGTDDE
Chain of BRD2(1) (P25440 74-180 limits assumed): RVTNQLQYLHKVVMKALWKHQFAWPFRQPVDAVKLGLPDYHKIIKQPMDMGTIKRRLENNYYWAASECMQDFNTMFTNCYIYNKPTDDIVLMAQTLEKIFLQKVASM

Row | activity at 1 µM (EP300; 1µM) [%] | activity at 10 µM (EP300; 10µM) [%] | activity at 1 µM (GCN5L2 [1]; 1µM) [%] | activity at 10 µM (GCN5L2 [1]; 10µM) [%] | Tm (C) 10µM, temperature shift (BRPF1) [Kelvin] | activity at 1 µM (MYST3; 1µM) [%] | activity at 10 µM (MYST3; 10µM) [%] | activity at 1 µM (HAT1; 1µM) [%] | activity at 10 µM (HAT1; 10µM) [%] | activity at 1 µM (MYST1; 1µM) [%] | activity at 10 µM (MYST1; 10µM) [%] | HATs Activity (%) (EP300; 1µM) | HATs Activity (%) (EP300; 10µM) | HATs Activity (%) (GCN5L2 [1]; 1µM) | HATs Activity (%) (GCN5L2 [1]; 10µM) | HATs Activity (%) (MYST3; 1µM) | HATs Activity (%) (MYST3; 10µM) | HATs Activity (%) (HAT1; 1µM) | HATs Activity (%) (HAT1; 10µM) | HATs Activity (%) (MYST1; 1µM) | SMILES | also measured
1 | 93 | 90 | 99 | 102 | -0.8 | 101 | 101 | 102 | 89 | 102 | 98 | – | – | – | – | – | – | – | – | – | CN1C[C@H](Nc2cnn(C)c(=O)c2Br)C[C@H](c2ccccc2)C1 [GSK4027] | –
2 | – | – | – | – | – | – | – | – | – | – | – | 98 | 104 | 107 | 107 | 107 | 104 | 100 | 94 | 99 | COc1ccccc1C(=O)Nc1cc2c(cc1N1CCNC[C@H]1C)n(C)c(=O)n2C [GSK6853] | HATs Activity (%) (MYST1; 10µM): 101%
3 | 96 | 102 | 102 | 100 | -0.2 | 96 | 102 | 100 | 95 | 99 | 103 | – | – | – | – | – | – | – | – | – | CO[C@H]1CNC[C@@H](OCC2CCC(F)(F)CC2)[C@@H]1Nc1ncc(-c2cncc(C)c2)c2cc(C)c(=O)[nH]c12 [GSK8814] | –
4 | 94 | 90 | 99 | 95 | -2.7 | 92 | 90 | 100 | 95 | 97 | 96 | – | – | – | – | – | – | – | – | – | Cc1nnc2c3ccccc3c(N[C@@H](C)[C@H](c3ccccc3)N(C)C)nn12 [L-Moses] | –
5 | – | – | – | – | – | – | – | – | – | – | – | 100 | 103 | 98 | 93 | 100 | 102 | 92 | 93 | 102 | COc1cc2c(cc1NS(=O)(=O)c1ccc(Br)cc1C)n(C)c(=O)n2C [OF-1] | Kd (BRD8(1); BRD8(1)): > 50000 nM; Kd (BRD8(1); [3]): > 30000 nM; Kd (PBRM1(2); PBRM1(2)): > 50000 nM; Kd (PBRM1(2); [3]): > 30000 nM; Kd (BRD2(1)): 7.4 µM; Kd (ATAD2A; ATAD2A): > 50000 nM; Kd (TRIM24(PHD,BRD); TRIM24(PHD,Bromo.)): 4500 nM; Kd (ATAD2B; ATAD2B): 29000 nM; Kd (PCAF; PCAF): 12000 nM; Kd (GCN5L2 [2]; GCN5L2): 6900 nM; Kd (BAZ2A; BAZ2A): 13 µM; Kd (SMARCA2; SMARCA2): > 50000 nM; Kd (SMARCA2; [3]): > 30000 nM; Kd (BRD3(2); BRD3(2)): 16000 nM; HATs Activity (%) (MYST1; 10µM): 94%
6 | 98 | 97 | 99 | 101 | – | 95 | 96 | 96 | 94 | 99 | 99 | – | – | – | – | – | – | – | – | – | O=C(C=CN1CC2CC1CN2c1ccccn1)c1ccccc1O (centres unmarked) [PFI-3] | Kd (BRD8(1); [4]): > 30000 nM; Kd (BRD8(1); KD, BRD8(1)): > 100000 nM; Kd (ATAD2A; [4]): > 30000 nM; Kd (ATAD2A; KD, ATAD2A): > 100000 nM; Kd (TRIM24(PHD,BRD); [4]): > 30000 nM; Kd (TRIM24(PHD,BRD); KD, TRIM24(PHD,Bromo.)): > 100000 nM; Kd (ATAD2B; [4]): > 30000 nM; Kd (ATAD2B; KD, ATAD2B): > 100000 nM; Kd (PCAF; [4]): > 30000 nM; Kd (PCAF; KD, PCAF): > 100000 nM; Kd (GCN5L2 [2]; [4]): > 30000 nM; Kd (GCN5L2 [2]; KD, GCN5L2): > 100000 nM; Kd (BAZ2A): > 100 µM; Kd (BRD3(2); [4]): > 30000 nM; Kd (BRD3(2); KD, BRD3(2)): > 100000 nM
